Laboratory results taken from patent US11118109B2, “Organic luminogens” (THE HONG KONG UNIVERSITY OF SCIENCE AND TECHNOLOGY, priority 2017, dated 2021).

Columns and labels:
LogP (Table 1) = type: physicochemical
HeLa cells = assay: Cell imaging of living HeLa cells by confocal microscopy, co-staining with MitoTracker Green FM and NucRed Live; type: cell-based; settings: incubation 60 min at 37° C.
Experimental: For cell culturing, HeLa cells were cultured in MEM containing 10% FBS and antibiotics (100 units/mL penicillin and 100 µg/mL streptomycin) in a 5% CO2 humidity incubator at 37° C. All culture mediums supplemented with 10% heat-inactivated FBS, 100 units/mL penicillin and 100 µg/mL streptomycin. Before experiment, the cells were precultured until confluence was reached.
For cell imaging, HeLa cells were grown overnight on a 35 mm petri dish with a cover slip at 37° C. After the removal of the medium, the adherent cells were washed twice with 1× phosphate buffered saline (PBS) buffer. 4MOTPO were then added to the chamber. After incubation for 1 h, then washed and incubated with MitoTracker® Green FM and NucRed® Live for 10 min, followed by further washing three times with 1×PBS buffer. The cells were imaged on Zeiss laser scanning confocal microscope and analyzed using ZEN 2009 software.
4MOTPO was tested in living HeLa cells to test the efficacy of the compound as a biosensor for bioimaging. Cells were incubated with 4MOTPO for 60 min at 37° C. and then washed and incubated with MitoTracker® Green FM and NucRed® Live for 10 min, followed by further washing.

COc1ccc(-c2oc(-c3ccccc3)[n+](-c3ccc(OC)cc3)c2-c2ccc(OC)cc2)cc1 [3MOTPO]
logP (LogP (Table 1)): 1.29

COc1ccc(-c2oc(-c3ccc(OC)cc3)[n+](-c3ccc(OC)cc3)c2-c2ccc(OC)cc2)cc1 [4MOTPO]
logP (LogP (Table 1)): 1.35 | subcellular localisation versus MitoTracker Green FM and NucRed Live (HeLa cells; co-staining 10 min): can accumulate in mitochondria | fluorescence observed in cells (intracellular distribution) (HeLa cells; confocal microscopy): intense blue fluorescence was observed in the cellular cytoplasms

COc1ccc(-[n+]2c(-c3ccccc3)oc(-c3ccccc3)c2-c2ccccc2)cc1 [1MOTPO]
logP (LogP (Table 1)): 1.02
